According to ChEMBL document CHEMBL3272159, “Synthesis and antihypertensive activity of 1-amino-3,4-dihydroisoquinolines” (1977):

Each compound was assayed on Rattus norvegicus (assay: Antihypertensive activity in po dosed renal hypertensive rat assessed as dose required to produce lowering of blood pressure to <= 130 mm after 2 to 24 hrs by photoelectric tensometric analysis).
Assay type: functional
For `COc1cc(/C=N/NC2=NCCc3ccccc32)cc(OC)c1O.Cl`, the ED50 was over 50 mg/kg.
`NNC1=NCCc2ccccc21` showed an ED50 of 30 mg/kg.
For `F[B-](F)(F)F.[NH3+]NC1=NCC(O)c2ccccc21` (stereo unspecified), the ED50 was over 50 mg/kg.
In the case of `Cl.NC1=NCCc2ccccc21`, the ED50 was over 50 mg/kg.
Work on `CCCCCCNC1=NCCc2ccccc21.O=S(=O)(O)O` yielded an ED50 of over 50 mg/kg.
`CN(C)CCNC1=NCCc2ccccc21.Cl` was tested, and the ED50 was over 50 mg/kg.
`O=S(=O)(O)O.c1ccc2c(c1)CCN=C2NCc1ccncc1` showed an ED50 of over 50 mg/kg.
With `COc1ccc(CCNC2=NCCc3ccccc32)cc1OC.O=S(=O)(O)O` the ED50 was over 50 mg/kg.
In the case of `O=S(=O)(O)O.c1ccc2c(c1)CCN=C2NCCc1ccc2c(c1)OCO2`, the ED50 was over 50 mg/kg.
`Nc1ccc(CCNC2=NCCc3ccccc32)cc1Cl.O=S(=O)(O)O` was tested, and the ED50 was over 50 mg/kg.
`COc1cc(CCNC2=NCCc3ccccc32)cc(OC)c1OC.O=S(=O)(O)O` was tested, and the ED50 was over 50 mg/kg.
`Cl.Oc1ccc(CCNC2=NCCc3ccccc32)cc1O` gave an ED50 of over 50 mg/kg.
`CCN(CC)CCOc1ccc(CNC2=NCCc3ccccc32)cc1.O=S(=O)(O)c1cccc2c(S(=O)(=O)O)cccc12` gave an ED50 of over 50 mg/kg.
`COc1ccc(NC2=NCCc3ccccc32)cc1` showed an ED50 of over 50 mg/kg.
`Cl.c1ccc2c(c1)CCN=C2N1CCCCC1` showed an ED50 of over 50 mg/kg.
For `O=S(=O)(O)c1cccc2c(S(=O)(=O)O)cccc12.c1ccc(CONC2=NCCc3ccccc32)cc1`, the ED50 was over 50 mg/kg.
`CN(C)NC1=NCCc2ccccc21.Cl` gave an ED50 of over 50 mg/kg.
Work on `CC(C)=NNC1=NCCc2ccccc21.O=S(=O)(O)O` yielded an ED50 of 15 mg/kg.
In the case of `CCCC/C=N/NC1=NCCc2ccccc21.Cl`, the ED50 was over 50 mg/kg.
Work on `C/C=N/NC1=NCCc2ccccc21.O=S(=O)(O)O` yielded an ED50 of 15 mg/kg.
For `O=S(=O)(O)O.c1ccc2c(c1)CCN=C2NN=C1CCCCC1`, the ED50 was over 50 mg/kg.
For `C/C=C/C(C)=N\NC1=NCCc2ccccc21.O=S(=O)(O)O`, the ED50 was over 50 mg/kg.
Work on `C(=N\NC1=NCCc2ccccc21)/c1ccccc1.Cl` yielded an ED50 of over 50 mg/kg.
With `COc1cccc(/C=N/NC2=NCCc3ccccc32)c1OC.Cl` the ED50 was over 50 mg/kg.
`CC1Cc2ccccc2C(NN)=N1.Cl` (stereo unspecified) gave an ED50 of 40 mg/kg.
Work on `NNc1nncc2ccccc12` [HYDRALAZINE] yielded an ED50 of 10 mg/kg.
